Experimental data reported in patent US10385019B2, “Inhibitors of EGFR and methods of use thereof” (Dana-Farber Cancer Institute, Inc., priority 2015, dated 2019).

Molecular target: EGFR T790M/L858R Ba/F3 cell line (Homo sapiens, UniProt P00533, T790M/L858R, cells depend on it)
Experiment: Ba/F3 cell proliferation model
Type: cell-based, murine
Details: combined with cetuximab (% cetuximab, 1.0 μM drug concentration with 1.0 μg/mL cetuximab)
Source text: The selectivity between wild-type EGFR and EGFR containing one or more mutations as described herein can also be measured using cellular proliferation assays where cell proliferation is dependent on kinase activity. For example, murine Ba/F3 cells transfected with a suitable version of wild-type EGFR (such as VIII; containing a WT EGFR kinase domain), or Ba/F3 cells transfected with L858R/T790M, Del/T790M/L718Q, L858R/T790M/L718Q, L858R/T790M/C797S, Del/T790M/C797S, L858R/T790M/I941R, or Exon 19 deletion/T790M can be used.
Cell lines are plated in media. The compounds of the present disclosure are then serially diluted and transferred to the cells. Cell viability is measured via a luminescent readout. Data is analyzed by non-linear regression curve-fitting. […]
The EGFR mutant L858R, Del E746_A750, L858R/T790M, DelE746_A750/T790M, L858R/T790M/C797S and Del/T790M/C797S Ba/F3 cells have been previously described (Zhou, W., Ercan, D., Chen, L., Yun, C. H., Li, D., Capelletti, M., Cortot, A. B., Chirieac, L., Iacob, R. E., Padera, R., et al. “Novel mutant-selective EGFR kinase inhibitors against EGFR T790M,” Nature 462, (2009), 1070-1074). All cell lines were maintained in RPMI 1640 (Cellgro; Mediatech Inc., Herndon, Calif.) supplemented with 10% FBS 100 units/mL penicillin, 100 units/mL streptomycin, and 2 mM glutamine. L858R cells were maintained in ACL-4 media (Invitrogen, Carlsbad, Calif.) supplemented with 5% FBS, 100 units/mL penicillin, 100 units/mL streptomycin, and 2 mM glutamine. The EGFR I941R mutation was introduced via site directed mutagenesis using the Quick Change Site-Directed Mutagenesis kit (Stratagene; La Jolla, Calif.) according to the manufacturer's instructions. All constructs were confirmed by DNA sequencing. The constructs were shuttled into the retroviral vector JP 1540 using the BD Creator™ System (BD Biosciences). Ba/F3 cells were infected with retrovirus and according to standard protocols, as described previously (Zhou et al, Nature 2009). Stable clones were obtained by selection in puromycin (2 μg/ml).
Growth and inhibition of growth was assessed by MTS assay and was performed according to previously established methods (Zhou et al., Nature 2009). The MTS assay is a colorimetric method for determining the number of viable cells that is based on the bioreduction of MTS by cells to a formazan product that is soluble in cell culture medium and can be detected spectrophotometrically. Ba/F3 cells of different EGFR genotypes were exposed to treatment for 72 hours and the number of cells used per experiment determined empirically and has been previously established (Zhou et al., Nature 2009). All experimental points were set up in six wells and all experiments were repeated at least three times. […] The curves were fitted using a non-linear regression model with a sigmoidal dose response.
Inhibition data of an EGFR T790M/L858R Ba/F3 cell line.

EGFR T790M/L858R Ba/F3 cell line, sequence (P00533 whole entry T790M/L858R): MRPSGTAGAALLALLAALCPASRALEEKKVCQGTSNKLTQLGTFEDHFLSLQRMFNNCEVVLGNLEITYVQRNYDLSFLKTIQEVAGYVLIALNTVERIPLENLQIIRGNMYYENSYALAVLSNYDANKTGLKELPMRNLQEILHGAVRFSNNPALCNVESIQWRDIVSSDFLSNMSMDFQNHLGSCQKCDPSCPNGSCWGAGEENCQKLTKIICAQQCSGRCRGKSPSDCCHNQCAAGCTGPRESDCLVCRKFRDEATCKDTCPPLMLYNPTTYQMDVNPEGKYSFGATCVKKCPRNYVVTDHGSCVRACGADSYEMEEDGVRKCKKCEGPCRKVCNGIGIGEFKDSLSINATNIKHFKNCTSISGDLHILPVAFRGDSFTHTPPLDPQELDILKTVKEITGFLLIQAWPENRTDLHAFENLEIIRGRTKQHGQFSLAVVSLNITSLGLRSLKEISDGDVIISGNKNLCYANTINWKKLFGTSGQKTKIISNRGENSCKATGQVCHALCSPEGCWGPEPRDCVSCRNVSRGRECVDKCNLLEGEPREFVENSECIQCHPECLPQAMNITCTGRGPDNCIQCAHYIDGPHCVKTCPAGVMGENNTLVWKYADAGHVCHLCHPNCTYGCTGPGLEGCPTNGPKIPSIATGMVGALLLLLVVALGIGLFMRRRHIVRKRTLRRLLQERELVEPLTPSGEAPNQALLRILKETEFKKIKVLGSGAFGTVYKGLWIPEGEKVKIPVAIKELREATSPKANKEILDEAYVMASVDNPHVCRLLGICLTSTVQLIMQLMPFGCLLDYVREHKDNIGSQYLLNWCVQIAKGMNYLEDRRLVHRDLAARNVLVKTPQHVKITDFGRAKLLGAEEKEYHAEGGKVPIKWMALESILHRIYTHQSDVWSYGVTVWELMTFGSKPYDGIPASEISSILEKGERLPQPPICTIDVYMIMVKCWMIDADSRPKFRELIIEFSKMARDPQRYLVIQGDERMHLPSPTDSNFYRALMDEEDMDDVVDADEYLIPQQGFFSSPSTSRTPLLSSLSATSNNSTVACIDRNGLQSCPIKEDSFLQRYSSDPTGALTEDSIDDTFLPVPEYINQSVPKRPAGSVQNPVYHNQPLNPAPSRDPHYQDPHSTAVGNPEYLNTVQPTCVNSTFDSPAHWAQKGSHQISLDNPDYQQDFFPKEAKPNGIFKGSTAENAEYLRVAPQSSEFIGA

SMILES | Activity (% inhibition)
CN(C)CCCCNC(=O)c1cccc(-c2ccc3c(c2)C(=O)N([C@@H](C(=O)Nc2nccs2)c2ccccc2)C3)c1 [Compound I-89, (R)-N-(4-(dimethylamino)butyl)-(3-oxo-2-(2-oxo-1-phenyl-2-(thiazol-2-ylamino)ethyl)isoindolin-5-yl)benzamide] | B (a % inhibition of between about 50% to about 75%)
O=C(Nc1cncnc1)[C@@H](c1ccccc1)N1Cc2ccc(-c3ccc4[nH]ccc4c3)cc2C1=O [Compound I-134, (R)-2-(6-(1H-indol-5-yl)-1-oxoisoindolin-2-yl)-2-phenyl-N-(pyrimidin-5-yl)acetamide] | A (a % inhibition of about 75%)
O=C(Nc1nccs1)[C@@H](c1ccccc1)N1Cc2cc(Nc3ccc(N4CCOCC4)cc3)ccc2C1=O [Compound I-94, (R)-2-(5-((4-morpholinophenyl)amino)-1-oxoisoindolin-2-yl)-2-phenyl-(thiazol-2-yl)acetamide] | C (a % inhibition of between about 25% to about 50%)
O=C(Nc1ncco1)[C@@H](c1ccccc1)N1Cc2ccc(-c3ccc4[nH]ccc4c3)cc2C1=O [Compound I-129, (R)-2-(6-(1H-indol-5-yl)-1-oxoisoindolin-2-yl)-N-(oxazol-2-yl)-2-phenylacetamide] | B (a % inhibition of between about 50% to about 75%)
O=C(Nc1nccs1)C(c1ccccn1)N1Cc2ccc(-c3ccc(N4CCNCC4)cc3)cc2C1=O (stereo not drawn) [Compound I-124, 2-(1-oxo-6-(4-(piperazin-1-yl)phenyl)isoindolin-2-yl)-2-(pyridin-2-yl)-N-(thiazol-2-yl)acetamide] | D (a % inhibition of between about 0% to about 25%)
CCOC(=O)c1csc(NC(=O)[C@@H](c2ccccc2)N2Cc3ccccc3C2=O)n1 [Compound I-4, ethyl (R)-2-(2-(1-oxoisoindolin-2-yl)-2-phenylacetamido) thiazole-4-carboxylate] | A (a % inhibition of about 75%)
O=C(Nc1nccs1)[C@@H](c1ccccc1)N1Cc2ccc(-c3cccnc3)cc2C1=O [Compound I-60, (R)-2-(1-oxo-6-(pyridin-3-yl)isoindolin-2-yl)-2-phenyl-N-(thiazol-2-yl)acetamide] | C (a % inhibition of between about 25% to about 50%)
O=C(Nc1nccs1)[C@@H](c1ccccc1)N1Cc2ccc(-c3ccc(OC(F)(F)F)cc3)cc2C1=O [Compound I-74, (R)-2-(1-oxo-6-(4-(trifluoromethoxy)phenyl)isoindolin-2-yl)-2-phenyl-N-(thiazol-2-yl)acetamide] | B (a % inhibition of between about 50% to about 75%)
O=C(NCCN1CCOCC1)c1cccc(-c2ccc3c(c2)C(=O)N([C@@H](C(=O)Nc2nccs2)c2ccccc2)C3)c1 [Compound I-90, (R)-N-(2-morpholinoethyl)-3-(3-oxo-2-(2-oxo-1-phenyl-2-(thiazol-2-ylamino)ethyl)isoindolin-5-yl)benzamide] | C (a % inhibition of between about 25% to about 50%)
C[C@H](NC(=O)[C@H](c1ccccc1)N1Cc2ccccc2C1=O)c1ccccc1 [Compound I-2, (S)-2-(1-oxoisoindolin-2-yl)-2-phenyl-N-((S)-1-phenylethyl)acetamide] | A (a % inhibition of about 75%)
CN(C)C1CCN(C(=O)c2csc(NC(=O)[C@@H](c3ccccc3)N3Cc4ccccc4C3=O)n2)CC1 [Compound I-23, (R)-N-(4-(4-(dimethylamino)piperidine-1-carbonyl)thiazol-2-yl)-2-(1-oxoisoindolin-2-yl)-2-phenylacetamide] | A (a % inhibition of about 75%)
O=C(Nc1ncnc2[nH]ncc12)[C@@H](c1ccccc1)N1Cc2ccccc2C1=O [Compound I-33, (R)-2-(1-oxoisoindolin-2-yl)-2-phenyl-N-(1H-pyrazolo[3,4-d]pyrimidin-4-yl)acetamide] | A (a % inhibition of about 75%)
O=C(Nc1nc(-c2ccncc2)cs1)[C@@H](c1ccccc1)N1Cc2ccccc2C1=O [Compound I-37, (R)-2-(1-oxoisoindolin-2-yl)-2-phenyl-N-(4-(pyridin-4-yl)thiazol-2-yl)acetamide] | A (a % inhibition of about 75%)
C[C@H](C(=O)Nc1nccs1)N1Cc2ccc(-c3ccc(N4CCN(C(=O)OC(C)(C)C)CC4)cc3)cc2C1=O [Compound I-117, tert-butyl (R)-4-(4-(3-oxo-2-(1-oxo-1-(thiazol-2-ylamino)propan-2-yl)isoindolin-5-yl)phenyl)piperazine-1-carboxylate] | A (a % inhibition of about 75%)

More lines, now with the values ahead:

Activity (% inhibition) | SMILES
A (a % inhibition of about 75%) | O=C(Nc1nncs1)[C@H](c1ccccc1)N1Cc2ccccc2C1=O [Compound I-42, (S)-2-(1-oxoisoindolin-2-yl)-2-phenyl-N-(1,3,4-thiadiazol-2-yl)acetamide]
A (a % inhibition of about 75%) | O=C(Nc1cnc(Br)cn1)[C@@H](c1ccccc1)N1Cc2ccccc2C1=O [Compound I-27, (R)-N-(5-bromopyrazin-2-yl)-2-(1-oxoisoindolin-2-yl)-2-phenylacetamide]
A (a % inhibition of about 75%) | O=C(Nc1nc(C(F)(F)F)cs1)[C@@H](c1ccccc1)N1Cc2ccccc2C1=O [Compound I-6, (R)-2-(1-oxoisoindolin-2-yl)-2-phenyl-N-(4-(trifluoromethyl)thiazol-2-yl)acetamide]
A (a % inhibition of about 75%) | O=C(Nc1nc2cccnc2s1)[C@@H](c1ccccc1)N1Cc2ccccc2C1=O [Compound I-32, (R)-2-(1-oxoisoindolin-2-yl)-2-phenyl-N-(thiazolo [5,4-b]pyridin-2-yl)acetamide]
A (a % inhibition of about 75%) | O=C(Nc1ccccc1)[C@@H](c1ccccc1)N1Cc2ccccc2C1=O [Compound I-51, (R)-2-(1-oxoisoindolin-2-yl)-N,2-diphenylacetamide]
A (a % inhibition of about 75%) | O=C(Nc1ncco1)[C@@H](c1ccccc1)N1Cc2ccccc2C1=O [Compound I-19, (R)-N-(oxazol-2-yl)-2-(1-oxoisoindolin-2-yl)-2-phenylacetamide]
A (a % inhibition of about 75%) | O=C(Nc1nc(Br)cs1)[C@@H](c1ccccc1)N1Cc2ccccc2C1=O [Compound I-36, (R)-N-(4-bromothiazol-2-yl)-2-(1-oxoisoindolin-2-yl)-2-phenylacetamide]
A (a % inhibition of about 75%) | Cc1cccc(C)c1NC(=O)[C@@H](c1ccccc1)N1Cc2ccccc2C1=O [Compound I-54, (R)-N-(2,6-dimethylphenyl)-2-(1-oxoisoindolin-2-yl)-2-phenylacetamide]
A (a % inhibition of about 75%) | O=C(Nc1cc(C2CC2)n[nH]1)[C@@H](c1ccccc1)N1Cc2ccccc2C1=O [Compound I-26, (R)-N-(3-cyclopropyl-1H-pyrazol-5-yl)-2-(1-oxoisoindolin-2-yl)-2-phenylacetamide]
A (a % inhibition of about 75%) | O=C(Nc1cc(C(F)(F)F)n[nH]1)[C@@H](c1ccccc1)N1Cc2ccccc2C1=O [Compound I-30, (R)-2-(1-oxoisoindolin-2-yl)-2-phenyl-N-(3-(trifluoromethyl)-1H-pyrazol-5-yl)acetamide]
A (a % inhibition of about 75%) | Cc1csc(NC(=O)[C@@H](c2ccccc2)N2Cc3ccccc3C2=O)n1 [Compound I-5, (R)-N-(4-methylthiazol-2-yl)-2-(1-oxoisoindolin-2-yl)-2-phenylacetamide]
A (a % inhibition of about 75%) | O=C(Nc1cc(F)ccc1F)[C@@H](c1ccccc1)N1Cc2ccccc2C1=O [Compound I-53, (R)-N-(2,5-difluorophenyl)-2-(1-oxoisoindolin-2-yl)-2-phenylacetamide]
A (a % inhibition of about 75%) | O=C(Nc1ncc[nH]1)[C@H](c1ccccc1)N1Cc2ccccc2C1=O [Compound I-35, (S)-N-(1H-imidazol-2-yl)-2-(1-oxoisoindolin-2-yl)-2-phenylacetamide]
